Data: patent US6165984A, “Naringin and naringenin as inhibitors of acyl CoA-cholesterol-o-acyltransferase” (Korea Institute of Science & Technology, priority 1997, dated 2000)

Legend:
[1] = system: acyl CoA-cholesterol-o-acyltransferase (ACAT); experiment: ACAT activity in liver microsomes of naringin- or naringenin-fed rats (Example 5); assay type: in vivo, Sprague-Dawley rat; settings: liver microsomes of rats fed 0.1% compound in 1% cholesterol diet; for ACAT activity: control 806.2 ± 105.2; for % Inhibition on ACAT activity: vs control group
Excerpt: (§1) 30 four-week-old Sprague-Dawley rats (Taihan laboratory animal center, Korea) each weighing about 90 to 110 g were evenly divided into three dietary groups by a randomized block design. The rats of the three groups were fed with three different high-cholesterol diets, i.e., AIN-76 laboratory animal diet (ICN Biochemicals, Cleveland, Ohio, U.S.A.) containing 1% cholesterol (Control group), and 1% cholesterol plus 0.1% naringin or naringenin, respectively.
To determine the effects of naringin and naringenin feeding to rats on the activity of ACAT, microsomes were separated from the liver tissue to be used as an enzyme source.
First, the rats of the three groups prepared in Example 3 were sacrificed by decapitation and the livers were excised. 1 g each of the livers was homogenized in 5 ml of homogenization medium (0.1 M KH2 PO4, pH 7.4, 0.1 mM EDTA and 10 mM β-mercaptoethanol). The homogenate was centrifuged at 3,000×g for 10 min. at 4° C. and the supernatant thus obtained was centrifuged at 15,000×g for 15 min. at 4° C. to obtain a supernatant. The supernatant was put into an ultracentrifuge tube (Beckman) and centrifuged at 100,000×g for 1 hour at 4° C. to obtain microsomal pellets, which were then suspended in 3 ml of the homogenization medium and centrifuged at 100,000×g for 1 hour at 4° C. The pellets thus obtained were suspended in 1 ml of the homogenization medium. The concentration of proteins in the resulting suspension was determined by Lowry's method and then adjusted to 4 to 8 mg/ml. The resulting suspension was stored in a deep freezer (Biofreezer, Forma Scientific Inc.).
6.67 μl of 1 mg/ml cholesterol solution in acetone was mixed with 6 μl of 10% Triton WR-1339(Sigma Co.) in acetone and, then, acetone was removed from the mixture by evaporation using nitrogen gas. Distilled water was added to the resulting mixture in an amount to adjust the concentration of cholesterol to […].
To 10 μl of the resulting aqueous cholesterol solution were added 10 μl of 1 M KH2 PO4 (pH 7.4), 5 μl of 0.6 mM bovine serum albumin (BSA), 10 μl of microsome solution obtained in (Step 1) and 55 μl of distilled water (total 90 μl). The mixture was pre-incubated in a waterbath at 37° C. for 30 min.
10 μl of (1-^14 C) oleoyl-CoA solution (0.05 μCi, final concentration: 10 μM) was added to the pre-incubated mixture and the resulting mixture was incubated in a waterbath at 37° C. for 30 min. […]
200 μl of the resulting supernatant was put in a scintillation bottle and 4 ml of scintillation fluid (Lumac) was added thereto. The mixture was assayed for radioactivity with 1450 Microbeta liquid scintillation counter (Wallacoy, Finland). ACAT activity was calculated as picomoles of cholesteryl oleate synthesized per min. per mg protein (pmoles/min/mg protein).

[2] = system: ICR mice; experiment: Acute oral toxicity of naringin or naringenin in mice; assay type: in vivo, mouse; settings: for toxicity or mitogenicity: tests using mice
Procedure: 7 to 8 week-old, specific pathogen-free ICR female mice (6 heads) each weighing about 25 to 29 g and male mice (6 heads) each weighing about 34 to 38 g were bred under a condition of temperature 22±1° C., moisture 55±5% and photoperiod 12L/12D. Fodder (Cheiljedang Co., mouse and rat fodder) and water were sterilized and fed to the mice.
Naringin or naringenin was dissolved in 0.5% Tween 80 to a concentration of 100 mg/ml, and the solution was orally administered to the mice in an amount of 0.2 ml per 20 g of mouse body weight. […] The weight changes of the mice were recorded every day to examine the effect of naringin or naringenin. Further, on the 10th day, the mice were sacrificed and the internal organs were visually examined.

[3] = literature; cited from earlier work
[4] = Blood total cholesterol and triglyceride in cholesterol-fed rabbits (Example 6); assay type: in vivo, New Zealand White rabbit; settings: 1% cholesterol diet, 6 weeks, 1 mg/kg Lovastatin, 0.1% naringin or naringenin; for Triglyceride: control 56; for Total cholesterol: control 1143
Procedure: Blood samples were taken from the rats of the three dietary groups and plasma HDL fractions were separated therefrom by using HDL-cholesterol reagent (Sigma Chemical Co., Cat. No. 352-3) containing dextran-sulfate. Total cholesterol and HDL-cholesterol levels were determined by using Sigma Diagnostic Kit Cat. No. 352-100(Sigma Chemical Co., […] et al., Clin. Chem., 20, 470-475(1974)). Neutral lipid level was determined by using Sigma Diagnostic Kit Cat. No. 339-50(Bucolo, G. and David, H., Clin. Chem., 19, 476-482(1973)). The result is shown in Table III, wherein the total plasma cholesterol levels in naringin and naringenin-fed rat groups decreased by 32% and 18%, respectively, as compared with that of the control group. […] RC4 diet comprises 7.6% moisture, 22.8% crude protein, 2.8% crude fat, 8.8% crude ash, 14.4% crude cellulose and 43.6% soluble nitrogen-free substances. The rabbits were bred for 6 weeks while being allowed free access to the diets and water. Further, blood samples were taken from the rabbits and total cholesterol and triglyceride levels were determined in accordance with the same procedure in Example 4.

[5] = Plasma total cholesterol, HDL-cholesterol and neutral lipid in rats on high-cholesterol diet (Example 4); assay type: in vivo, Sprague-Dawley rat; settings: 1% cholesterol diet plus 0.1% compound, six weeks; for HDL-C: control 22.2; for TG (triglyceride): control 99.2 ± 18.9; for Total-C (total plasma cholesterol): control 147.8 ± 34.8
Excerpt: as §1
The effect of administering naringin or naringenin to rats on the plasma cholesterol and neutral lipid content was determined as follows.
Blood samples were taken from the rats of the three dietary groups and plasma HDL fractions were separated therefrom by using HDL-cholesterol reagent (Sigma Chemical Co., Cat. No. 352-3) containing dextran-sulfate. Total cholesterol and HDL-cholesterol levels were determined by using Sigma Diagnostic Kit Cat. No. 352-100(Sigma Chemical Co., U.S.A.) (Allain et al., Clin. Chem., 20, 470-475(1974)). Neutral lipid level was determined by using Sigma Diagnostic Kit Cat. No. 339-50(Bucolo, G. and David, H., Clin. Chem., 19, 476-482(1973)). The result is shown in Table III, wherein the total plasma cholesterol levels in naringin and naringenin-fed rat groups decreased by 32% and 18%, respectively, as compared with that of the control group.

[6] = system: liver function; settings: in vivo
[7] = single oral dose, 1,000 mg/kg, mice

SMILES | ACAT activity [1] | % Inhibition on ACAT activity [1] | survival at day 10 [2, 7] | weight loss ([2]; single oral dose, 1,000 mg/kg, mice, 10 day test period) | toxicity ([2]; single oral dose, 1,000 mg/kg, mice, 10 days) | pathological abnormality at autopsy ([2]; single oral dose, 1,000 mg/kg, mice, day 10) | toxicity or mitogenicity [2] | reported activities [3] | Triglyceride [4] | Total cholesterol [4] | decrease of total plasma cholesterol level compared with control group [5] | HDL-C [5] | TG (triglyceride) [5] | Total-C (total plasma cholesterol) [5] | adverse effects on the liver function [6] | corresponding oral administration dose for a person weighing 50 kg ([2]; mouse, in vivo)
O=C1C[C@@H](c2ccc(O)cc2)Oc2cc(O)cc(O)c21 [naringenin] | 666.3 ± 65.3 pmole/min/mg protein | 17.4% | All the mice were alive | no weight loss | no toxicity | did not develop any pathological abnormality | little toxicity or mitogenicity | anti-cancer, anti-viral and cholesterol lowering activities | 70 mg/dL | 1350 mg/dL | 18% | 23.4 mg/dL | 103.4 ± 18.2 mg/dL | 120.9 ± 25.9 mg/dL | no adverse effects on the liver function | 
C[C@@H]1O[C@@H](O[C@H]2[C@H](Oc3cc(O)c4c(c3)O[C@H](c3ccc(O)cc3)CC4=O)O[C@H](CO)[C@@H](O)[C@@H]2O)[C@H](O)[C@H](O)[C@H]1O [naringin, Naringin] | 643.5 ± 80.7 pmole/min/mg protein | 20.2% | All the mice were alive |  |  |  | little toxicity or mitogenicity | anti-cancer, anti-viral and cholesterol lowering activities | 72 mg/dL | 1367 mg/dL | 32% | 24.0 mg/dL | 86.7 ± 14.6 mg/dL | 100.8 ± 16.1 mg/dL | no adverse effects on the liver function | 50-100 g/kg body weight
